Data on 20 compounds can be found in patent US20230107642A1 (Erasca, Inc., priority 2020, published 2023).

This test deals with T1, K-Ras G12C (Homo sapiens, UniProt P01116, G12C).
T1 construct: This protein contained 188 amino acids in total, including an N-terminal 6-Histidine tag; made in house; host or cells: E. coli BL21
As to the kind of experiment: CAF assay (% CAF; method in Example 7, not in this part). It is filed as binding.

Consider `C=CC(=O)N1CCN(c2nc(=O)n3c4c(c(-c5cccc6cnn(C)c56)c(Cl)cc24)SCC3)[C@@H](C)C1` (atropisomer, axis not shown) [Example 107, (S)-7-((S)-4-acryloyl-2-methylpiperazin-1-yl)-9-chloro-10-(1-methyl-1H-indazol-7-yl)-2,3-dihydro-5H-[1,4]thiazino[2,3,4-ij]quinazolin-5-one], for which the “% CAF @ 10 uM, 1h” value (10 uM, 1 h, Table 3) is listed as 0%. For `C=CC(=O)N1CCN(c2nc(=O)n3c4c(c(-c5cccc6cnn(C)c56)c(Cl)cc24)SCC3)[C@@H](C)C1` (atropisomer, axis not shown) [Example 108, (R)-7-((S)-4-acryloyl-2-methylpiperazin-1-yl)-9-chloro-10-(1-methyl-1H-indazol-7-yl)-2,3-dihydro-5H-[1,4]thiazino[2,3,4-ij]quinazolin-5-one], for the setting “10 uM, 1 h, Table 3”, the “% CAF @ 10 uM, 1h” value came to 91.7%. On the same count and under the same terms, the same measure for `C=CC(=O)N1CCN(c2nc(=O)n3c4c(c(-c5ccccc5F)c(Cl)cc24)SCC3)[C@@H](C)C1` (atropisomer, axis not shown) [Example 123, (R)-7-((S)-4-acryloyl-2-methylpiperazin-1-yl)-9-chloro-10-(2-fluorophenyl)-2,3-dihydro-5H-[1,4]thiazino[2,3,4-ij]quinazolin-5-one]: 91.3%; for `C=CC(=O)N1CCN(c2nc(=O)n3c4c(c(-c5ccccc5F)c(Cl)cc24)SCC3)[C@@H](C)C1` (atropisomer, axis not shown) [Example 124, (S)-7-((S)-4-acryloyl-2-methylpiperazin-1-yl)-9-chloro-10-(2-fluorophenyl)-2,3-dihydro-5H-[1,4]thiazino[2,3,4-ij]quinazolin-5-one]: 96%; for `C=CC(=O)N1CCN(c2nc(=O)n3c4c(c(-c5cccc6ccccc56)c(Cl)cc24)SCC3)[C@@H](C)C1` (atropisomer, axis not shown) [Example 172, 7-((S)-4-acryloyl-2-methylpiperazin-1-yl)-9-chloro-10-(naphthalen-1-yl)-2,3-dihydro-5H-[1,4]thiazino[2,3,4-ij]quinazolin-5-one]: 51.9%. The same measure, in the same setting: the same measure for `C=CC(=O)N1C[C@H](C)N(c2nc(=O)n3c4c(c(-c5ccc(F)cc5F)c(Cl)cc24)S(=O)(=O)CC3)C[C@H]1C` (atropisomer, axis not shown) [Example 177, (S)-7-((2S,5R)-4-acryloyl-2,5-dimethylpiperazin-1-yl)-9-chloro-10-(2,4-difluorophenyl)-2,3-dihydro-5H-[1,4]thiazino[2,3,4-ij]quinazolin-5-one 1,1-dioxide]: 93.5%; for `C=CC(=O)N1C[C@H](C)N(c2nc(=O)n3c4c(c(-c5ccc(F)cc5F)c(Cl)cc24)S(=O)(=O)CC3)C[C@H]1C` (atropisomer, axis not shown) [Example 178, (R)-7-((2S,5R)-4-acryloyl-2,5-dimethylpiperazin-1-yl)-9-chloro-10-(2,4-difluorophenyl)-2,3-dihydro-5H-[1,4]thiazino[2,3,4-ij]quinazolin-5-one 1,1-dioxide]: 58.3%; for `C=CC(=O)N1CCN(c2nc(=O)n3c4c(c(-c5ccc(F)cc5F)c(Cl)cc24)SCC3)[C@@H](C)C1` (atropisomer, axis not shown) [Example 180, (R)-7-((S)-4-acryloyl-2-methylpiperazin-1-yl)-9-chloro-10-(2,4-difluorophenyl)-2,3-dihydro-5H-[1,4]thiazino[2,3,4-ij]quinazolin-5-one]: 94.7%. For the compound `C=CC(=O)N1C[C@H](C)N(c2nc(=O)n3c4c(c(-c5cccc6ccccc56)c(Cl)cc24)SCC3)C[C@H]1C` (atropisomer, axis not shown) [Example 183, 7-((2S,5R)-4-acryloyl-2,5-dimethylpiperazin-1-yl)-9-chloro-10-(naphthalen-1-yl)-2,3-dihydro-5H-[1,4]thiazino[2,3,4-ij]quinazolin-5-one], the “% CAF @ 10 uM, 1h” value (10 uM, 1 h, Table 3) is on record as 45.3%. `C=CC(=O)N1CCN(c2nc(=O)n3c4c(c(-c5cc(Cl)c(F)cc5F)c(Cl)cc24)SC[C@@H]3CN2CCC3(CC2)COC3)[C@@H](C)C1` (atropisomer, axis not shown) [Example 482, (3S,10S)-3-((2-oxa-7-azaspiro[3.5]nonan-7-yl)methyl)-7-((S)-4-acryloyl-2-methylpiperazin-1-yl)-9-chloro-10-(5-chloro-2,4-difluorophenyl)-2,3-dihydro-5H-[1,4]thiazino[2,3,4-ij]quinazolin-5-one]: for the setting “10 uM compound, 1 h incubation”, the “% CAF @ 10 uM, 1h” value turned out to be 90%.

Turning to `C=CC(=O)N1CCN(c2nc(=O)n3c4c(c(-c5cc(Cl)c(F)cc5F)c(Cl)cc24)SC[C@@H]3CN2CCC3(CC2)COC3)[C@@H](C)C1` (atropisomer, axis not shown) [Example 483, (3S,10R)-3-((2-oxa-7-azaspiro[3.5]nonan-7-yl)methyl)-7-((S)-4-acryloyl-2-methylpiperazin-1-yl)-9-chloro-10-(5-chloro-2,4-difluorophenyl)-2,3-dihydro-5H-[1,4]thiazino[2,3,4-ij]quinazolin-5-one], the “% CAF @ 10 uM, 1h” value (10 uM compound, 1 h incubation) is on record as 15.7%.

Consider `C=CC(=O)N1C[C@H](C)N(c2nc(=O)n3c4c(c(-c5cc(F)c(F)cc5F)c(Cl)cc24)SC[C@@H]3CN2CCC3(CC2)COC3)C[C@H]1C` (atropisomer, axis not shown) [Example 484, (3S,10S)-3-((2-oxa-7-azaspiro[3.5]nonan-7-yl)methyl)-7-((2S,5R)-4-acryloyl-2,5-dimethylpiperazin-1-yl)-9-chloro-10-(2,4,5-trifluorophenyl)-2,3-dihydro-5H-[1,4]thiazino[2,3,4-ij]quinazolin-5-one], for which the “% CAF @ 10 uM, 1h” value (10 uM compound, 1 h incubation) was determined as 77.9%. As for `C=CC(=O)N1C[C@H](C)N(c2nc(=O)n3c4c(c(-c5cc(F)c(F)cc5F)c(Cl)cc24)SC[C@@H]3CN2CCC3(CC2)COC3)C[C@H]1C` (atropisomer, axis not shown) [Example 485, (3S,10R)-3-((2-oxa-7-azaspiro[3.5]nonan-7-yl)methyl)-7-((2S,5R)-4-acryloyl-2,5-dimethylpiperazin-1-yl)-9-chloro-10-(2,4,5-trifluorophenyl)-2,3-dihydro-5H-[1,4]thiazino[2,3,4-ij]quinazolin-5-one], for the setting “10 uM compound, 1 h incubation”, the “% CAF @ 10 uM, 1h” value stood at 45%.

Turning to `C=CC(=O)N1C[C@H](C)N(c2nc(=O)n3c4c(c(-c5ccc(F)cc5F)c(C(F)(F)F)cc24)SC[C@@H]3COC)C[C@H]1C` (atropisomer, axis not shown) [Example 508, (3S,10S)-7-((2S,5R)-4-acryloyl-2,5-dimethylpiperazin-1-yl)-10-(2,4-difluorophenyl)-3-(methoxymethyl)-9-(trifluoromethyl)-2,3-dihydro-5H-[1,4]thiazino[2,3,4-ij]quinazolin-5-one], the “% CAF @ 10 uM, 1h” value (10 uM compound, 1 h incubation) is 92%.

On to `C=CC(=O)N1C[C@H](C)N(c2nc(=O)n3c4c(c(-c5ccc(F)cc5F)c(C(F)(F)F)cc24)SC[C@@H]3COC)C[C@H]1C` (atropisomer, axis not shown) [Example 509, (3S,10R)-7-((2S,5R)-4-acryloyl-2,5-dimethylpiperazin-1-yl)-10-(2,4-difluorophenyl)-3-(methoxymethyl)-9-(trifluoromethyl)-2,3-dihydro-5H-[1,4]thiazino[2,3,4-ij]quinazolin-5-one], for which, under “10 uM compound, 1 h incubation”, the “% CAF @ 10 uM, 1h” value came out at 96.5%. The same measure, in the same setting: the same measure for `C=CC(=O)N1C[C@H](C)N(c2nc(=O)n3c4c(c(-c5ccc(F)cc5F)c(C(F)(F)F)cc24)SC[C@@H]3COCCOC)C[C@H]1C` (atropisomer, axis not shown) [Example 510, (3S,10S)-7-((2S,5R)-4-acryloyl-2,5-dimethylpiperazin-1-yl)-10-(2,4-difluorophenyl)-3-((2-methoxyethoxy)methyl)-9-(trifluoromethyl)-2,3-dihydro-5H-[1,4]thiazino[2,3,4-ij]quinazolin-5-one]: 72.9%; for `C=CC(=O)N1C[C@H](C)N(c2nc(=O)n3c4c(c(-c5ccc(F)cc5F)c(C(F)(F)F)cc24)SC[C@@H]3COCCOC)C[C@H]1C` (atropisomer, axis not shown) [Example 511, (3S,10R)-7-((2S,5R)-4-acryloyl-2,5-dimethylpiperazin-1-yl)-10-(2,4-difluorophenyl)-3-((2-methoxyethoxy)methyl)-9-(trifluoromethyl)-2,3-dihydro-5H-[1,4]thiazino[2,3,4-ij]quinazolin-5-one]: 80.6%; for `C=CC(=O)N1C[C@H](C)N(c2nc(=O)n3c4c(c(-c5cc(Cl)c(F)cc5F)c(C(F)(F)F)cc24)SC[C@@H]3COC)C[C@H]1C` (atropisomer, axis not shown) [Example 544, (3S,10S)-7-((2S,5R)-4-acryloyl-2,5-dimethylpiperazin-1-yl)-10-(5-chloro-2,4-difluorophenyl)-3-(methoxymethyl)-9-(trifluoromethyl)-2,3-dihydro-5H-[1,4]thiazino[2,3,4-ij]quinazolin-5-one]: 48.8%. The same measure, in the same setting: the same measure for `C=CC(=O)N1C[C@H](C)N(c2nc(=O)n3c4c(c(-c5cc(Cl)c(F)cc5F)c(C(F)(F)F)cc24)SC[C@@H]3COC)C[C@H]1C` (atropisomer, axis not shown) [Example 545, (3S,10R)-7-((2S,5R)-4-acryloyl-2,5-dimethylpiperazin-1-yl)-10-(5-chloro-2,4-difluorophenyl)-3-(methoxymethyl)-9-(trifluoromethyl)-2,3-dihydro-5H-[1,4]thiazino[2,3,4-ij]quinazolin-5-one]: 94.1%; for `C=CC(=O)N1[C@H](C)CN(c2nc(=O)n3c4c(c(-c5ccc(F)cc5F)c(C(F)(F)F)cc24)SC[C@@H]3COC)C[C@@H]1C` (atropisomer, axis not shown) [Example 546, (3S,10S)-7-((3S,5R)-4-acryloyl-3,5-dimethylpiperazin-1-yl)-10-(2,4-difluorophenyl)-3-(methoxymethyl)-9-(trifluoromethyl)-2,3-dihydro-5H-[1,4]thiazino[2,3,4-ij]quinazolin-5-one]: 94.3%.
